Test results taken from patent US10544130B2, “Metallo-beta-lactamase inhibitors” (priority 2015, dated 2020).

The compounds below were run on Pseudomonas aeruginosa PAO1 MB9798 (efflux+, IMP-1). Details: ratio MITC95 PA 9798/MITC95 PA 9799; imipenem at 2 μg/mL.
Method in brief: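 Isogenic PAO1 pair (efflux+ MB9798, efflux− MB9799, both IMP-1) tested by microbroth MIC with fixed imipenem and/or ceftazidime, usually at CLSI breakpoint, plus fixed class A/C inhibitor against AmpC. MBL inhibitor titrated; concentration restoring susceptibility recorded and fold difference between strains taken as efflux extent.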

Compared with Cn1cnc(CNS(=O)(=O)c2ccc(-c3cccc4sc(N)nc34)c(-c3nnn[nH]3)c2S(N)(=O)=O)n1 [Example 20, 4-(2-amino-1,3-benzothiazol-4-yl)-N^1-[(1-methyl-1H-1,2,4-triazol-3-yl)methyl]-3-(1H-tetrazol-5-yl)benzene-1,2-disulfonamide], CNCCNS(=O)(=O)c1ccc(-c2cccc3sc(N)nc23)c(-c2nnn[nH]2)c1S(N)(=O)=O [Example 31, 4-(2-amino-1,3-benzothiazol-4-yl)-N^1-[2-(methylamino)ethyl]-3-(1H-tetrazol-5-yl)benzene-1,2-disulfonamide] is higher in Efflux ratio: 1.00 for the first, 1.50 for the second.

Nc1nc2c(-c3ccc(S(=O)(=O)NCC4COCCN4)c(S(N)(=O)=O)c3-c3nnn[nH]3)cccc2s1.O=C(O)C(F)(F)F (stereo not shown) [Example 96, 3-((4-(2-aminobenzo[d]thiazol-4-yl)-2-sulfamoyl-3-(1H-tetrazol-5-yl)phenylsulfonamido)methyl)morpholin-4-ium 2,2,2-trifluoroacetate] and Nc1nc2c(-c3ccc(S(=O)(=O)NCC4CCC(=O)N4)c(S(N)(=O)=O)c3-c3nnn[nH]3)cccc2s1 (stereo not shown) [Example 19, 4-(2-amino-1,3-benzothiazol-4-yl)-N1-[(5-oxopyrrolidin-2-yl)methyl]-3-(1H-tetrazol-5-yl)benzene-1,2-disulfonamide] are the same in Efflux ratio: 1.00 for the first, 1.00 for the second.

Compared with NCCNS(=O)(=O)c1ccc(-c2ccc3ncn(CCN)c3c2)c(-c2nn[nH]n2)c1S(N)(=O)=O [Example 348, N^1-(2-aminoethyl)-4-(1-(2-aminoethyl)-1H-benzo[d]imidazol-6-yl)-3-(2H-tetrazol-5-yl)benzene-1,2-disulfonamide], NCCNS(=O)(=O)c1ccc(-c2cccc3oc(N)nc23)c(-c2nn[nH]n2)c1S(N)(=O)=O [Example 11, 4-(2-aminobenzo[d]oxazol-4-yl)-N^1-(2-aminoethyl)-3-(2H-tetrazol-5-yl)benzene-1,2-disulfonamide] is lower in Efflux ratio: 4.00 for the first, 1.00 for the second.

First: Nc1nc2c(-c3ccc(S(=O)(=O)N4CC(N)C4)c(S(N)(=O)=O)c3-c3nn[nH]n3)cccc2s1 [Example 147, 6-((3-aminoazetidin-1-yl)sulfonyl)-3-(2-aminobenzo[d]thiazol-4-yl)-2-(2H-tetrazol-5-yl)benzenesulfonamide]
Second: CNS(=O)(=O)c1ccc(-c2cccc3sc(N)nc23)c(-c2nn[nH]n2)c1S(N)(=O)=O [Example 152, 4-(2-aminobenzo[d]thiazol-4-yl)-N1-methyl-3-(2H-tetrazol-5-yl)benzene-1,2-disulfonamide]
The Efflux ratio of the first is lower: 1.00 for the first, 8.00 for the second.

NCC1CCCCN1S(=O)(=O)c1ccc(-c2cccc3sc(N)nc23)c(-c2nnn[nH]2)c1S(N)(=O)=O.O=C(O)C(F)(F)F (stereo not shown) [Example 110, (1-((4-(2-aminobenzo[d]thiazol-4-yl)-2-sulfamoyl-3-(1H-tetrazol-5-yl)phenyl)sulfonyl)piperidin-2-yl)methanaminium 2,2,2-trifluoroacetate] and NC[C@H]1CCN(S(=O)(=O)c2ccc(-c3cccc4sc(N)nc34)c(-c3nnn[nH]3)c2S(N)(=O)=O)C1 [Example 74, 3-(2-amino-1,3-benzothiazol-4-yl)-6-{[(3R)-3-(aminomethyl)pyrrolidin-l-yl]sulfonyl}-2-(1H-tetrazol-5-yl)benzenesulfonamide] are the same in Efflux ratio: 1.00 for the first, 1.00 for the second.

Nc1nc2c(-c3ccc(S(N)(=O)=O)c(S(N)(=O)=O)c3-c3nn[nH]n3)cccc2o1 [Example 4, 4-(2-aminobenzo[d]oxazol-4-yl)-3-(2H-tetrazol-5-yl)benzene-1,2-disulfonamide] and Nc1ccc2cccc(-c3ccc(S(N)(=O)=O)c(S(N)(=O)=O)c3-c3nn[nH]n3)c2n1 [Example 2, 4-(2-aminoquinolin-8-yl)-3-(2H-tetrazol-5-yl)benzene-1,2-disulfonamide] are the same in Efflux ratio: 1.00 for the first, 1.00 for the second.

Going from Nc1ncccc1-c1ccc(S(=O)(=O)NC[C@H]2CNCCN2)c(S(N)(=O)=O)c1-c1nn[nH]n1 [Example 316, (R)-4-(2-aminopyridin-3-yl)-N1-(piperazin-2-ylmethyl)-3-(1H-tetrazol-5-yl)benzene-1,2-disulfonamide] to Nc1ncccc1-c1ccc(S(=O)(=O)NC[C@@H](N)CO)c(S(N)(=O)=O)c1-c1nn[nH]n1 [Example 214, (R)-N1-(2-amino-3-hydroxypropyl)-4-(2-aminopyridin-3-yl)-3-(2H-tetrazol-5-yl)benzene-1,2-disulfonamide], the Efflux ratio rises from 2.00 to 8.00.

Going from Nc1nc2cccc(-c3ccc(S(=O)(=O)N4CCNCC4)c(S(N)(=O)=O)c3-c3nn[nH]n3)c2[nH]1 [Example 157, 3-(2-amino-3H-benzo[d]imidazol-4-yl)-6-(piperazin-1-ylsulfonyl)-2-(2H-tetrazol-5-yl)benzenesulfonamide] to Nc1nc2c(-c3ccc(S(=O)(=O)NC4CNC4)c(S(N)(=O)=O)c3-c3nn[nH]n3)cccc2[nH]1 [Example 252, 4-(2-amino-1H-benzo[d]imidazol-4-yl)-N1-(azetidin-3-yl)-3-(2H-tetrazol-5-yl)benzene-1,2-disulfonamide], the Efflux ratio falls from 4.00 to 0.68.

CC1(NS(=O)(=O)c2ccc(-c3cccc4sc(N)nc34)c(-c3nnn[nH]3)c2S(N)(=O)=O)CCCNC1 (stereo not shown) [Example 57, 4-(2-amino-1,3-benzothiazol-4-yl)-N1-(3-methylpiperidin-3-yl)-3-(1H-tetrazol-5-yl)benzene-1,2-disulfonamide] and Nc1nc2c(-c3ccc(S(=O)(=O)NC4(CO)CCNC4)c(S(N)(=O)=O)c3-c3nnn[nH]3)cccc2s1 (stereo not shown) [Example 84, 4-(2-amino-1,3-benzothiazol-4-yl)-N1-[3-(hydroxymethyl)pyrrolidin-3-yl]-3-(1H-tetrazol-5-yl)benzene-1,2-disulfonamide] are the same in Efflux ratio: 1.00 for the first, 1.00 for the second.

CNCCCN(C)S(=O)(=O)c1ccc(-c2cccc3sc(N)nc23)c(-c2nnn[nH]2)c1S(N)(=O)=O.O=C(O)C(F)(F)F [Example 93, 3-(4-(2-aminobenzo[d]thiazol-4-yl)-N-methyl-2-sulfamoyl-3-(1H-tetrazol-5-yl)phenylsulfonamido)-N-methylpropan-1-aminium 2,2,2-trifluoroacetate] and C[C@H](N)CNS(=O)(=O)c1ccc(-c2cccc3sc(N)nc23)c(-c2nnn[nH]2)c1S(N)(=O)=O.O=CO [Example 127, (S)-4-(2-aminobenzo[d]thiazol-4-yl)-N1-(2-aminopropyl)-3-(1H-tetrazol-5-yl)benzene-1,2-disulfonamide, formate salt] are the same in Efflux ratio: 1.00 for the first, 1.00 for the second.

Nc1nc2c(-c3ccc(S(=O)(=O)N[C@H]4CN[C@H](CO)C4)c(S(N)(=O)=O)c3-c3nnn[nH]3)cccc2[nH]1 [Example 172, 4-(2-amino-1H-benzo[d]imidazol-4-yl)-N^1-((3R,5S)-5-(hydroxymethyl)pyrrolidin-3-yl)-3-(1H-tetrazol-5-yl)benzene-1,2-disulfonamide] and Nc1nc2c(-c3ccc(S(=O)(=O)N[C@@H]4CN[C@H](CO)C4)c(S(N)(=O)=O)c3-c3nnn[nH]3)cccc2[nH]1 [Example 175, 4-(2-amino-1H-benzo[d]imidazol-4-yl)-N^1 - ((3S,5S)-5-(hydroxymethyl)pyrrolidin-3-yl)-3-(1H-tetrazol-5-yl)benzene-1,2-disulfonamide] are the same in Efflux ratio: 0.50 for the first, 0.50 for the second.

First: Nc1ccc(-c2ccc(S(=O)(=O)N[C@@H]3CCNC3)c(S(N)(=O)=O)c2-c2nn[nH]n2)cn1 [Example 194, (R)-4-(6-aminopyridin-3-yl)-N^1-(pyrrolidin-3-yl)-3-(2H-tetrazol-5-yl)benzene-1,2-disulfonamide]
Second: Nc1ccc(-c2ccc(S(=O)(=O)N[C@H]3CCNC3)c(S(N)(=O)=O)c2-c2nn[nH]n2)cn1 [Example 195, (S)-4-(6-aminopyridin-3-yl)-N^1-(pyrrolidin-3-yl)-3-(2H-tetrazol-5-yl)benzene-1,2-disulfonamide]
The Efflux ratio of the first is lower: 0.80 for the first, 1.00 for the second.

Compared with C[C@@H](N)CNS(=O)(=O)c1ccc(-c2cccc3[nH]c(N)nc23)c(-c2nn[nH]n2)c1S(N)(=O)=O [Example 185, 4-(2-amino-1H-benzo[d]imidazol-4-yl)-N1-((R)-2-aminopropyl)-3-(2H-tetrazol-5-yl)benzene-1,2-disulfonamide], NCCNS(=O)(=O)c1ccc(-c2cccc3sc(N)nc23)c(-c2nn[nH]n2)c1S(N)(=O)=O [Example 145, 4-(2-aminobenzo[d]thiazol-4-yl)-N1-(2-aminoethyl)-3-(2H-tetrazol-5-yl)benzene-1,2-disulfonamide] is lower in Efflux ratio: 0.65 for the first, 0.50 for the second.

First: NS(=O)(=O)c1c(S(=O)(=O)N[C@@H]2CCNC2)ccc(-c2cccnc2N2CCNCC2)c1-c1nn[nH]n1 [Example 220, (R)-4-(2-(piperazin-1-yl)pyridin-3-yl)-N1-(pyrrolidin-3-yl)-3-(2H-tetrazol-5-yl)benzene-1,2-disulfonamide]
Second: NCCNS(=O)(=O)c1ccc(-c2cccc3oc(C(=O)O)nc23)c(-c2nn[nH]n2)c1S(N)(=O)=O [Example 13, 4-(4-(N-(2-aminoethyl)sulfamoyl)-3-sulfamoyl-2-(2H-tetrazol-5-yl)phenyl)benzo oxazole-2-carboxylic acid]
The Efflux ratio of the first is higher: 4.00 for the first, 2.00 for the second.

First: Nc1ccc(-c2ccc(S(=O)(=O)NC[C@@H](N)CO)c(S(N)(=O)=O)c2-c2nn[nH]n2)cn1 [Example 365, (R)—N1-(2-amino-3-hydroxypropyl)-4-(6-aminopyridin-3-yl)-3-(2H-tetrazol-5-yl) benzene-1,2-disulfonamide]
Second: NS(=O)(=O)c1ccc(-c2cccc3[nH]c(C(=O)O)nc23)c(-c2nn[nH]n2)c1S(N)(=O)=O [Example 8, 4-(3,4-disulfamoyl-2-(2H-tetrazol-5-yl)phenyl)-1H-benzo[d]imidazole-2-carboxylic acid]
The Efflux ratio of the first is higher: 2.00 for the first, 1.00 for the second.

Work on Nc1nc2c(-c3ccc(S(=O)(=O)N[C@@H]4CN[C@@H](CO)C4)c(S(N)(=O)=O)c3-c3nnn[nH]3)cccc2[nH]1 [Example 174, 4-(2-amino-1H-benzo[d]imidazol-4-yl)-N^1-((3S,5R)-5-(hydroxymethyl)pyrrolidin-3-yl)-3-(1H-tetrazol-5-yl)benzene-1,2-disulfonamide] yielded an Efflux ratio of 1.00.
